Experimental data published in patent US20240228490A1, “HETEROCYCLIC DERIVATIVE INHIBITOR AND PREPARATION METHOD THEREFOR AND APPLICATION THEREOF” (Shanghai Hansoh Biomedical Co., Ltd., priority 2021, published 2024).
Read-outs that look alike come from different tables or passages of the source.

Legend:
[1] = molecular target: PARP1 enzyme (Homo sapiens (Human), UniProt P09874); experiment: Inhibitory activity on PARP1 enzyme (chemiluminescence); type: biochemical
Experimental: The inhibitory activity of the compounds on PARP1 enzyme was determined by the chemiluminescence method in the experiment. The experiment was carried out in a 384-well plate. Coating histones in a 384-well plate: 5×histone solution was diluted 5 folds with PBS, added to a 384-well ELISA plate (25 μL per well), and incubated at 4° C. overnight. […] A mixture of PARP reaction biotin-labeled substrate, activated DNA, 10×PARP buffer and water was added (12.5 μL per well). Compound solutions with different concentrations were formulated using the experimental buffer (10% DMSO aqueous solution containing 1.25 mM DTT). The final detection concentration started from 100 nM, with 3-fold dilution and 8 concentrations. The compound solutions were added to the reaction wells of the 384-well plate (2.5 μL per well). 2.5 μL of 10% DMSO aqueous solution containing 1.25 mM DTT was added to the positive control well and blank well (2.5 μL per well). […] The plate was centrifuged at 1000 rpm for 1 minute, and reacted at room temperature for 60 minutes. […] Streptavidin-HRP solution diluted 50 folds with Blocking buffer 3 was added (25 μL per well), and the plate was incubated at room temperature for 30 minutes. […] The luminescence reaction solution obtained by mixing ECL substrate A and ELISA ECL substrate B (1:1) was added (50 μL per well) for reaction. The chemiluminescence values were measured immediately with a BioTek Synergy H1 or Envision instrument.
The chemiluminescence values were measured with a BioTek Synergy H1 or Envision instrument. The inhibition rate was calculated, and the concentration and inhibition rate were fitted to a nonlinear regression curve using Graphpad Prism software to obtain the IC50 value.

[2] = system: BRCA2 Knockout DLD-1 cells; experiment: Inhibition of proliferation of BRCA2 Knockout DLD-1 cells (CellTiter-Glo); type: cell-based; conditions: Homo sapiens, about 144 hours incubation
Experimental: BRCA2 Knockout DLD-1 cells were cultured using RPMI1640 culture medium containing 10% FBS to an appropriate cell density. The cells were collected, and adjusted to an appropriate cell concentration using the complete culture medium. The cell suspension was spread on a 96-well plate (90 μL per well), and placed in a 37° C., 5% CO2 incubator overnight. Compound solutions of different concentrations were formulated using DMSO and culture medium, and vehicle control was set up. The compound solutions were added to the 96-well plate (10 μL per well), and the plate was incubated in a 37° C., 5% CO2 incubator for about 144 hours. CellTiter-Glo solution was added, and the plate was shaken to mix evenly, and incubated in the dark for 10 to 30 minutes. The values were measured with a Synergy H1 or Envision microplate reader.
The inhibition rate was calculated using the luminescence signal value. The concentration and inhibition rate were fitted to a nonlinear regression curve using Graphpad Prism software to obtain the IC50 value.

[3] = PK part of PK/PD study in MDA-MB-436 subcutaneous xenograft model: plasma and tumor concentration; type: in vivo, BALB/c nude mice; conditions: female, BALB/c nude, mouse, single oral 0.3 mg/kg
From the text: • a. […] Cells were passaged once every three days. […] The resulting suspension was placed in an ice box for later use.
• a. […] During the inoculation, the cell suspension was mixed well. […] The nude mouse was bound with the left hand. […] Inoculation started after 30 seconds. • d.
• a. Grouping: According to the growth of the tumor, when the tumor grew to a volume of 300-500 mm^3, tumor-bearing mice were selected according to the experimental design and randomly grouped (3 mice per each time point) to start the PK/PD test. • b. Fasting: All tumor-bearing mice were fasted (with free access to water) overnight (fasting >8 hours) before the administration. • c. Administration: Except for the blank control group, a single oral administration was carried out according to the time of the experimental design, and the administration volume was 10 mL/kg. • d. Sample collection: The mice were euthanized by CO2 asphyxiation according to the time of the experimental design, and the samples were collected. One plasma sample and three tumor tissue samples were collected from each animal.
Plasma collection: After the mouse was euthanized, blood was collected from the heart. The collected blood was added to a centrifuge tube containing EDTA-K2. The tube was manually inverted 3 to 4 times, placed on ice, and centrifuged at 8000 rpm at 4° C. for 5 minutes. 100 μL of the centrifuged plasma was transferred to a new labeled centrifuge tube. One aliquot of plasma was quickly freezed on dry ice, and stored in a refrigerator at −80±10° C. for PK test.
Tumor tissue collection: After the blood collection, the tumor tissue was collected. The collected tumor tissue was divided into 3 aliquots (˜0.1 g each), placed into labeled 2 mL centrifuge tubes, and stored in a refrigerator at −80±10° C. for PK or PD test.
a. Sample Process: • 1) 4 parts by weight of 20% methanol in water was added to 1 part by weight of the tumor tissue sample, and homogenized at 40 Hz for 400 seconds.

[4] = Bidirectional permeability through Caco-2 cell model; conditions: human
Experimental: 100 μL of transport buffer (HBSS containing 10 μM test compound, 0.5% BSA, and 0.5% DMSO) was added to the administration end of A to B • b. 300 μL of transport buffer (HBSS containing 0.5% BSA) was added to the receiving end of A to B • c. 300 μL of transport buffer (HBSS containing 10 μM test compound, 0.5% BSA, and 0.5% DMSO) was added to the administration end of B to A • d. 100 μL of transport buffer (HBSS containing 0.5% BSA) was added to the receiving end of B to A • e. Incubation for 2 hours • d. Samples were taken, processed and detected by mass spectrometry.
• Instrument: liquid chromatography; • Chromatographic column: Waters XSelect HSS T3 C18 (2.1*50 mm, 2.5 μm); • Mobile phase: phase A: water containing 0.1% formic acid; phase B: acetonitrile containing 0.1% formic acid.
• Instrument: API4000 liquid chromatography-mass spectrometer; • Ion source: electrospray ionization source (ESI); • Detection method: positive ion detection; • Scan mode: multiple reaction monitoring (MRM) mode.

[5] = plasma, read-out: Mean plasma concentration
[6] = tumor tissue, read-out: Mean tumor tissue concentration

PARP1 enzyme, sequence (P09874 whole entry): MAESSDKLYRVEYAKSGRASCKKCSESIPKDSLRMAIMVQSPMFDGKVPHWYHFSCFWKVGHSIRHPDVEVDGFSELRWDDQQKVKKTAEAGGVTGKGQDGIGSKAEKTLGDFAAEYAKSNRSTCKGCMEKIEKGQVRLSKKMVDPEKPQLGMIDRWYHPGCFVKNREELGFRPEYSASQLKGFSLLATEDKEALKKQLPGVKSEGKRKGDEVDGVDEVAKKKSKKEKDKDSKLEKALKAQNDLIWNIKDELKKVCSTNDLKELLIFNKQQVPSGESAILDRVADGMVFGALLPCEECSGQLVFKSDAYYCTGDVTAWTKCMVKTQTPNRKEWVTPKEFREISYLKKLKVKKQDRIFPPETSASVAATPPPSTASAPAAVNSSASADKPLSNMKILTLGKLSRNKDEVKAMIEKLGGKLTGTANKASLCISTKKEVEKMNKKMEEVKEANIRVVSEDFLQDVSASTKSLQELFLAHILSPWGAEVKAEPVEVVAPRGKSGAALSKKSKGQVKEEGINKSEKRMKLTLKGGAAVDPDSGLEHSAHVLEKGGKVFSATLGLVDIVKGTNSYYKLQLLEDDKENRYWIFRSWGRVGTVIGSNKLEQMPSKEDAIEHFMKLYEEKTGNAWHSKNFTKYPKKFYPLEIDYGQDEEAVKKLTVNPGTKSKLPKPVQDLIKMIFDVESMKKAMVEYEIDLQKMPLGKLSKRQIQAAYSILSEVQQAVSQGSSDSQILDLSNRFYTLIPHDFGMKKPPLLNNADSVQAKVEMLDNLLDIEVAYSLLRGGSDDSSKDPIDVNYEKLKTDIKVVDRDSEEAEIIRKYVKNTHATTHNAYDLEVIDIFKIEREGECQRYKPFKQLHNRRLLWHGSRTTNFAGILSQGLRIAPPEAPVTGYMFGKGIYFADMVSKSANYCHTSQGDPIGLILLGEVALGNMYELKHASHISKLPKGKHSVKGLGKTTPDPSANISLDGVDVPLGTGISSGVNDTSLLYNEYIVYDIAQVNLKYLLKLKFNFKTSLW

CCc1cc2c(C#N)cc(CN3CC=C(c4ccc(C(=O)NC)nc4)CC3)cc2[nH]c1=O [Example 42, 1′-((5-Cyano-3-ethyl-2-oxo-1,2-dihydroquinolin-7-yl)methyl)-N-methyl-1′,2′,3′,6′-tetrahydro-[3,4′-bipyridine]-6-carboxamide]
IC50 [1]: 1.3 nM
IC50 [2]: 3 nM

CCc1cc2ncc(CN3CC=C(c4ccc(C(=O)NCC(F)(F)F)nc4)CC3)cc2[nH]c1=O [Example 83, 1′-((7-Ethyl-6-oxo-5,6-dihydro-1,5-naphthyridin-3-yl)methyl)-N-(2,2,2-trifluoroethyl)-1′,2′,3′,6′-tetrahydro-[3,4′-bipyridine]-6-carboxamide]
IC50 [1]: 1.4 nM
IC50 [2]: 1.4 nM

CCc1cc2ncc(CN3CCN(c4cnc5c(NC)ncc(F)c5c4)CC3)cc2[nH]c1=O [Example 94, 3-Ethyl-7-((4-(5-fluoro-8-(methylamino)-1,7-naphthyridin-3-yl)piperazin-1-yl)methyl)-1,5-naphthyridin-2(1H)-one]
IC50 [2]: 8.4 nM

CNC(=O)c1ccc(C2=CCN(Cc3cnc4cc(C(F)(F)F)c(=O)[nH]c4c3)CC2)cn1 [Example 84, N-Methyl-1′-((6-oxo-7-(trifluoromethyl)-5,6-dihydro-1,5-naphthyridin-3-yl)methyl)-1′,2′,3′,6′-tetrahydro-[3,4′-bipyridine]-6-carboxamide]
IC50 [1]: 2.7 nM
IC50 [2]: 5.1 nM

CCc1cc2ncc(CN3CCN(c4ccc(C(=O)NC)nc4)CC3)cc2[nH]c1=O [AZD5305, reference compound]
concentration at 1 h [3, 5]: 1460 ng/mL
concentration at 2 h [3, 5]: 1370 ng/mL
concentration at 4 h [3, 5]: 1120 ng/mL
concentration at 6 h [3, 5]: 713 ng/mL
concentration at 8 h [3, 5]: 584 ng/mL
concentration at 16 h [3, 5]: 252 ng/mL
concentration at 24 h [3, 5]: 102 ng/mL
concentration at 32 h [3, 5]: 41 ng/mL
concentration at 48 h [3, 5]: 10 ng/mL
concentration at 72 h [3, 5]: 6 ng/mL
concentration at 1 h [3, 6]: 41 ng/g
concentration at 2 h [3, 6]: 100 ng/g
concentration at 4 h [3, 6]: 131 ng/g
concentration at 6 h [3, 6]: 117 ng/g
concentration at 8 h [3, 6]: 95 ng/g
concentration at 16 h [3, 6]: 94 ng/g
concentration at 24 h [3, 6]: 61 ng/g
concentration at 32 h [3, 6]: 59 ng/g
concentration at 48 h [3, 6]: 44 ng/g
concentration at 72 h [3, 6]: 31 ng/g

CCc1cc2ncc(CN3CC=C(c4ncc(C)n4C)CC3)cc2[nH]c1=O [Example 53, 7-((4-(1,5-Dimethyl-1H-imidazol-2-yl)-3,6-dihydropyridin-1(2H)-yl)methyl)-3-ethyl-1,5-naphthyridin-2(1H)-one]
IC50 [1]: 0.96 nM
IC50 [2]: 7.5 nM

CCc1cc2ncc(C(C)N3CC=C(c4ccc(C(=O)NC)nc4)CC3)cc2[nH]c1=O (stereo not drawn) [Example 93, 1′-(1-(7-Ethyl-6-oxo-5,6-dihydro-1,5-naphthyridin-3-yl)ethyl)-N-methyl-1′,2′,3′,6′-tetrahydro-[3,4′-bipyridine]-6-carboxamide]
IC50 [1]: 2.1 nM
IC50 [2]: 3.6 nM

CCc1cc2ncc(CN3CC=C(c4ccc(C(=O)NC5(C#N)CC5)nc4)CC3)cc2[nH]c1=O [Example 59, N-(1-Cyanocyclopropyl)-1′-((7-ethyl-6-oxo-5,6-dihydro-1,5-naphthyridin-3-yl)methyl)-1′,2′,3′,6′-tetrahydro-[3,4′-bipyridine]-6-carboxamide]
IC50 [1]: 0.8 nM
IC50 [2]: 2.7 nM

CCc1cc2ncc(CN3CC=C(c4ccc(C(=O)NOC)nc4)CC3)cc2[nH]c1=O [Example 30, 1′-((7-Ethyl-6-oxo-5,6-dihydro-1,5-naphthyridin-3-yl)methyl)-N-methoxy-1′,2′,3′,6′-tetra hydro-[3,4′-bipyridine]-6-carboxamide]
IC50 [1]: 1.4 nM
IC50 [2]: 3.2 nM

CCc1cc2ncc(CN3CC=C(c4ccc(C(=O)NCC#N)nc4)CC3)cc2[nH]c1=O [Example 58, N-(Cyanomethyl)-1′-((7-ethyl-6-oxo-5,6-dihydro-1,5-naphthyridin-3-yl)methyl)-1′,2′,3′,6′-tetrahydro-[3,4′-bipyridine]-6-carboxamide]
IC50 [1]: 0.9 nM
IC50 [2]: 2.4 nM

CCc1cc2ncc(CN3CC=C(c4cnc5c(NC)nccc5c4)CC3)cc2[nH]c1=O [Example 102, 3-Ethyl-7-((4-(8-(methylamino)-1,7-naphthyridin-3-yl)-3,6-dihydropyridin-1(2H)-yl)methyl)-1,5-naphthyridin-2(1H)-one]
IC50 [2]: 5.2 nM

CCc1cc2ncc(CN3CCC(c4ccc(C(=O)NC)nc4)CC3)cc2[nH]c1=O [Example 2, 5-(1-((7-Ethyl-6-oxo-5,6-dihydro-1,5-naphthyridin-3-yl)methyl)piperidin-4-yl)-N-methylpicolinamide]
Papp A→B at 2 h, 10 μM [4]: 9.42 ×10⁻⁶ cm/s
Papp B→A at 2 h, 10 μM [4]: 13.5 ×10⁻⁶ cm/s

[2H]C([2H])([2H])Nc1nccc2cc(N3CCN(Cc4cnc5cc(CC)c(=O)[nH]c5c4)CC3)cnc12 [Example 98, 3-Ethyl-7-((4-(8-((methyl-d3)amino)-1,7-naphthyridin-3-yl)piperazin-1-yl)methyl)-1,5-naphthyridin-2(1H)-one]
IC50 [2]: 1.7 nM

CCc1cc2ncc(CN3CC=C(c4ccc(C(=O)NC)nc4Cl)CC3)cc2[nH]c1=O [Example 56, 2-Chloro-1′-((7-ethyl-6-oxo-5,6-dihydro-1,5-naphthyridin-3-yl)methyl)-N-methyl-1′,2′,3′,6′-tetrahydro-[3,4′-bipyridine]-6-carboxamide]
IC50 [1]: 1.3 nM
IC50 [2]: 1 nM

CCc1cc2ncc(CN3CCC(c4ccc(C(=O)NC)nc4)=C(F)C3)cc2[nH]c1=O [Example 81, 1′-((7-Ethyl-6-oxo-5,6-dihydro-1,5-naphthyridin-3-yl)methyl)-5′-fluoro-N-methyl-1′,2′,3′,6′-tetrahydro-[3,4′-bipyridine]-6-carboxamide]
IC50 [1]: 0.9 nM
IC50 [2]: 1.5 nM
